Source: ChEMBL document CHEMBL5046227, “Design, synthesis and bioactivity evaluation of novel evodiamine derivatives with excellent potency against gastric cancer” (Eur J Med Chem, 2022)
The source made the active and inactive calls. The calls are words filed in the database; no cut-off is given here.

Key:
[1] = target: T1, DNA topoisomerase 1 (Homo sapiens) (UniProt P11387); experiment: Inhibition of topoisomerase 1 (unknown origin) assessed as relaxation of supercoiled plasmid pBR322 DNA at 100 uM incubated for 15 mins by ethidium bromide staining based agarose gel electrophoresis method
T1 sequence (whole entry): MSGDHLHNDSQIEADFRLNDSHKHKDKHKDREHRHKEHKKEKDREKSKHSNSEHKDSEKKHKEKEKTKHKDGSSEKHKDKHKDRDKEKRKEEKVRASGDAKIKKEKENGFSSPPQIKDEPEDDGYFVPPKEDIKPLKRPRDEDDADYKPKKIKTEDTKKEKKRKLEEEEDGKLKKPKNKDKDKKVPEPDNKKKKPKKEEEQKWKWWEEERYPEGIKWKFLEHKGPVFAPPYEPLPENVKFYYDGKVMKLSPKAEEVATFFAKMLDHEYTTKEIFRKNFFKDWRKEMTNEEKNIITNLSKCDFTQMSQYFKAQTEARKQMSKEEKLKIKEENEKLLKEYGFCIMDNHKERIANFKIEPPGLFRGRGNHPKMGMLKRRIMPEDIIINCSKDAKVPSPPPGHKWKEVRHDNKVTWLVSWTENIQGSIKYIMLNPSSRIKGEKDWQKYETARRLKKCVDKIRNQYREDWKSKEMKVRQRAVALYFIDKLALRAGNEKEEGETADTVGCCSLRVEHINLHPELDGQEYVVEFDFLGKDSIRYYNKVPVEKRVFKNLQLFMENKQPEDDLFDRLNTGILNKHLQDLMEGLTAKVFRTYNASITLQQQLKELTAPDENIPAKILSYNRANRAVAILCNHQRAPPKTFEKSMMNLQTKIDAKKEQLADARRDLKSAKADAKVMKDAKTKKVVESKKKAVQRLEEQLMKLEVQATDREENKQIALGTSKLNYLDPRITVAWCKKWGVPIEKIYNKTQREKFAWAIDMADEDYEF

[2] = target: T1, DNA topoisomerase 1 (Homo sapiens); experiment: Inhibition of topoisomerase 1 (unknown origin) assessed as relaxation of supercoiled plasmid pBR322 DNA at 25 uM incubated for 15 mins by ethidium bromide staining based agarose gel electrophoresis method
MGC-803 [3] = experiment: Antitumor activity against human MGC-803 cells xenografted in BALB/c nude mouse assessed as tumor inhibition rate at 50 mg/kg, ip for 16 days; assay type: functional; details: MGC-803, ip, 384 h, time 16 day, read-out: TGI
SGC-7901 [4] = experiment: Antiproliferative activity against human SGC-7901 cells assessed as reduction in cell viability at 0.3 uM measured after 24 hrs by MTT assay; assay type: functional
SGC-7901 [5] = experiment: Antiproliferative activity against human SGC-7901 cells assessed as reduction in EdU positive cells at 0.03 to 0.3 uM measured after 24 hrs by EdU incorporation assay; assay type: functional, cell-based; details: dose 0.03-0.3 µM
MGC-803 [6] = experiment: Induction of apoptosis in human MGC-803 cells assessed as formation of apoptotic bodies measured after 24 hrs by Hoechst 33342 staining based fluorescence microscopic analysis; assay type: functional, cell-based
SGC-7901 [7] = experiment: Induction of apoptosis in human SGC-7901 cells assessed as viable cells at 0.1 uM after 24 hrs by Annexin V-FITC/PI staining based flow cytometry method (reference value: 99.95%); assay type: functional; details: read-out: Activity
SGC-7901 [8] = experiment: Induction of apoptosis in human SGC-7901 cells assessed as early apoptic cells at 0.1 uM after 24 hrs by Annexin V-FITC/PI staining based flow cytometry method (reference value: 0.01%); assay type: functional
SGC-7901 [9] = experiment: Induction of apoptosis in human SGC-7901 cells assessed as necrotic cells at 0.1 uM after 24 hrs by Annexin V-FITC/PI staining based flow cytometry method (reference value: 0.01%); assay type: functional
SGC-7901 [10] = experiment: Induction of apoptosis in human SGC-7901 cells assessed as necrotic cells at 0.3 uM after 24 hrs by Annexin V-FITC/PI staining based flow cytometry method (reference value: 0.01%); assay type: functional
SGC-7901 [11] = experiment: Induction of apoptosis in human SGC-7901 cells assessed as viable cells at 0.9 uM after 24 hrs by Annexin V-FITC/PI staining based flow cytometry method (reference value: 99.95%); assay type: functional; details: read-out: Activity
SGC-7901 [12] = experiment: Induction of apoptosis in human SGC-7901 cells assessed as late apoptic cells at 0.9 uM after 24 hrs by Annexin V-FITC/PI staining based flow cytometry method (reference value: 0.03%); assay type: functional
SGC-7901 [13] = experiment: Induction of apoptosis in human SGC-7901 cells assessed as necrotic cells at 0.9 uM after 24 hrs by Annexin V-FITC/PI staining based flow cytometry method (reference value: 0.01%); assay type: functional
MGC-803 [14] = experiment: Induction of apoptosis in human MGC-803 cells assessed as viable cells at 0.1 uM after 24 hrs by Annexin V-FITC/PI staining based flow cytometry method (reference value: 99.9%); assay type: functional; details: read-out: Activity
MGC-803 [15] = experiment: Induction of apoptosis in human MGC-803 cells assessed as early apoptic cells at 0.9 uM after 24 hrs by Annexin V-FITC/PI staining based flow cytometry method (reference value: 0%); assay type: functional
MGC-803 [16] = experiment: Induction of apoptosis in human MGC-803 cells assessed as late apoptic cells at 0.9 uM after 24 hrs by Annexin V-FITC/PI staining based flow cytometry method (reference value: 0.05%); assay type: functional
MGC-803 [17] = experiment: Antiinvasive activity against human MGC-803 cells assessed as reduction in cell invasion at 0.03 to 0.3 uM incubated for 24 hrs by matrigel-coated transwell assay; assay type: functional, cell-based; details: dose 0.03-0.3 µM
Heart = experiment: Acute toxicity in Kunming mouse assessed as effect on heart at 1000 mg/kg, ip measured for 14 days by H and E staining based histological analysis; assay type: organism-based; details: in vivo, 336 h, time 14 day
Lung = experiment: Acute toxicity in Kunming mouse assessed as effect on lungs at 1000 mg/kg, ip measured for 14 days by H and E staining based histological analysis; assay type: organism-based; details: in vivo, 336 h, time 14 day
[18] = Toxicity in BALB/c nude mouse xenografted with human MGC-803 cells assessed as change in body weight at 50 mg/kg, ip for 16 days; assay type: organism-based; details: in vivo, 384 h, time 16 day
[19] = Acute toxicity in BALB/c nude mouse xenografted with human MGC-803 cells assessed as effect on granulocyte level at 50 mg/kg, ip for 16 days (reference value: 71.30 +/- 1.47 x10^9/L); assay type: organism-based; details: in vivo, 384 h, time 16 day
[20] = Acute toxicity in BALB/c nude mouse xenografted with human MGC-803 cells assessed as effect on platelet level at 50 mg/kg, ip for 16 days (reference value: 1512.67 +/- 252.74 x10^9/L); assay type: organism-based; details: in vivo, 384 h, time 16 day
SGC-7901 [21] = experiment: Antimigratory activity against human SGC-7901 cells assessed as inhibition on cell migration at 0.1 to 0.9 uM measured after 24 hrs by transwell assay; assay type: functional, cell-based; details: dose 0.1-0.9 µM
MGC-803 [22] = experiment: Inhibition of colony formation in human MGC-803 cells at 0.03 to 0.3 uM incubated for 14 days by crystal violet staining based assay; assay type: functional, cell-based; details: dose 0.03-0.3 µM, time 14.0 day
MGC-803 [23] = experiment: Antimigratory activity against human MGC-803 cells assessed as inhibition on cell migration at 0.1 to 0.9 uM measured after 24 hrs by transwell assay; assay type: functional, cell-based; details: dose 0.1-0.9 µM

Cc1ccc2c(c1)C(=O)N1CCc3c([nH]c4ccc(C)cc34)C1N2c1cccc(F)c1 (stereo not given)
inhibition [1]: 63.6%
inhibition [2]: 37.7%
inhibition in vivo at 50 mg/kg (MGC-803 [3]): 70.1%
Activity (SGC-7901 [4]): 80%
Activity (SGC-7901 [5]): Dose-Dependent Effect
Activity (MGC-803 [6]): Active
viability at 0.1 µM (SGC-7901 [7]): 93.4%
Activity (SGC-7901 [8]): 2.06%
Activity (SGC-7901 [9]): 0.07%
Activity (SGC-7901 [10]): 0.16%
viability at 0.9 µM (SGC-7901 [11]): 76.8%
Activity (SGC-7901 [12]): 15.57%
Activity (SGC-7901 [13]): 0.37%
viability at 0.1 µM (MGC-803 [14]): 65%
Activity (MGC-803 [15]): 32.51%
Activity (MGC-803 [16]): 55.99%
Activity (MGC-803 [17]): Active
Activity (Heart): Non-Toxic
Activity (Lung): Non-Toxic
Activity [18]: Non-Toxic
Activity [19]: 73.2 10^9/L
Activity [20]: 1579 10^9/L
Activity (SGC-7901 [21]): Active
Activity (MGC-803 [22]): Active
Activity (MGC-803 [23]): Active
